Test results: patent US20180098969A1, “HODGKIN LYMPHOMA THERAPY” (Purdue Pharmaceutical Products L.P., priority 2016, published 2018)

Test system: CD14 cells
Experiment: CD14-positive cells by flow cytometry in xenografted mice
Format: in vivo, NSG mice
Method: Cells were gated to exclude apoptotic or necrotic cells and sorted into CD30−/CD15− and CD30+ and CD15+/CD30+ fractions by gating on the lowest and highest 5% PE-expressing cells, respectively. Following sorting, the CD30−/CD15− cell fractions were analyzed using a FACScan flow cytometer (Becton Dickinson) and found to be more than 98% pure. For phenotypic analyses of cell lines or sorted cells, cells were prepared as described, and then stained with mouse anti-human CD30-phycoerthrin (PE), CD15-fluorescein isothyocyanate (FITC), CD14-APC-cyanine 7 (Cy7) and CD45-APC (all antibodies from BD PharMingen, San Diego, Calif.). […] Cells were subsequently analysed using a FACS LSRII (Becton Dickinson, Franklin Lakes, N.J.). […]
Novel biomarkers CD68 and CD14 which are expressed by tumour associated macrophages and myeloid derived suppressor cells respectively in the microenvironment have recently been reported to affect the prognosis of Hodgkin lymphoma (Haematologica, 2011 Feb; 96(2): 186-189). The presence of the CD14-positive cells following administration of a single dose of EDO-S101 (60 mg/kg or 80 mg/kg) and after two administrations of EDO-S101 at 60 mg/kg was evaluated using flow cytometry with anti CD14 antibodies.

Compound: Cn1c(CCCCCCC(=O)NO)nc2cc(N(CCCl)CCCl)ccc21 [EDO-S101]
- frequency of CD14 cells (2×60 mg/kg versus single 80 mg/kg): higher frequency following treatment with 2×60 mg/kg than treatment with a single dose of 80 mg/kg
- frequency of CD14 cells (treated versus untreated mice): significantly higher frequency of CD14 cells in untreated mice compared to treated mice
